Measurements reported in US7829114B2, “Capsules containing aqueous fill compositions stabilized with derivatized cyclodextrin” (CyDex Pharmaceuticals, Inc., priority 2002, dated 2010).

Test: Hard shell capsule stability in aqueous SBE-CD solutions
Format: physicochemical
Settings: hardcap
Method: Two types of hard shell capsules obtained from […] were evaluated. A conventional hard gelatin capsule (HCAP) and a hard HPMC (hydroxypropyl methylcellulose) capsule (VCAP) were evaluated under identical conditions using aqueous solutions differing in the concentration of SBE-CD (sulfobutyl ether cyclodextrin).

With sulfobutyl ether cyclodextrin [SAE-CD] the Observations (30% SBE solution) was “deformed/bends”, the failure time (30% SBE solution) was 24 h and the size (30% SBE solution) was 2 × × length. For the same substance, the Observations (40% SBE solution) was “deformed/closed”, the failure time (40% SBE solution) was 48 h and the size (40% SBE solution) was greater than 2 × × width. For the same substance, the Observations (50% SBE solution) was “deformed/closed”, the failure time (50% SBE solution) was 48 h and the size (50% SBE solution) was 2 × × width. The Observations (60% SBE solution) was “closed/stuck”, the failure time (60% SBE solution) was 96 h and the size (60% SBE solution) was 2 × × width.
